In article PMC4054929 (Bioorganic & medicinal chemistry, 2014):
Where “and” joins values, the source holds several entries; their conditions need not be identical. Identical values can stand only once.

Assays:
PDE10A [1] = target: PDE10A (Rattus norvegicus, UniProt Q9QYJ6); conditions: for Distribution, blood, MP-10 block / Distribution, cerebellum, MP-10 block / Distribution, fat, MP-10 block / Distribution, heart, MP-10 block / Distribution, kidney, MP-10 block / Distribution, liver, MP-10 block / Distribution, lung, MP-10 block / Distribution, muscle, MP-10 block / Distribution, striatum, MP-10 block / Distribution, total brain, MP-10 block: rats pretreated with MP-10 2.0 mg/kg 5 min prior to tracer; for striatal binding after blocking dose of MP-10: MP-10 2 mg/kg i.v. 5 min prior to tracer, p < 0.05
PDE10A [2] = conditions: NHP brain
[3] = In vivo biodistribution and regional brain uptake in rats; conditions: for Biodistribution, blood / Biodistribution, cerebellum / Biodistribution, fat / Biodistribution, heart / Biodistribution, kidney / Biodistribution, liver / Biodistribution, lung / Biodistribution, muscle / Biodistribution, striatum / Biodistribution, total brain: male SD rats, i.v.

PDE10A (Rattus norvegicus, UniProt Q9QYJ6), sequence (Q9QYJ6 whole entry): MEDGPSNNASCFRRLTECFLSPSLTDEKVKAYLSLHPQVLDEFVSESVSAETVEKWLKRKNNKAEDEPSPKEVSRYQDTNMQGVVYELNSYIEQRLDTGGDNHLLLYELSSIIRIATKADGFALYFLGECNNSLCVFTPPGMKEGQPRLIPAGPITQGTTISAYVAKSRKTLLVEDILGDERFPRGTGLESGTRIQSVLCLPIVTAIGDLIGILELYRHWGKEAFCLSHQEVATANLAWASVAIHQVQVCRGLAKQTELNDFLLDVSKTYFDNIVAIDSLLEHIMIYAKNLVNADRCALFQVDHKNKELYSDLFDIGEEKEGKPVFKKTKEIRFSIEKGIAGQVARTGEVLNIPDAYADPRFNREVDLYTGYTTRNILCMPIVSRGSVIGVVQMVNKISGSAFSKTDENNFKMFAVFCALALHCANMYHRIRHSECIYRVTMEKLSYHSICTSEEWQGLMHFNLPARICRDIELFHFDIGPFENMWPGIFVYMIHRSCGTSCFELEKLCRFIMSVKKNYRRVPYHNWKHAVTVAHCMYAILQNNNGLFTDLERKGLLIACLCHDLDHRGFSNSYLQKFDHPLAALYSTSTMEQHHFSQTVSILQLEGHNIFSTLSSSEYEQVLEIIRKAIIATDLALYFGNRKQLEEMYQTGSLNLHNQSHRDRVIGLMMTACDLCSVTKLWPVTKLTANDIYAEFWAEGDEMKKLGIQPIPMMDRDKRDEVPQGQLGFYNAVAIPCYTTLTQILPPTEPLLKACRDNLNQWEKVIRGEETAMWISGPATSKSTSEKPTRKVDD

SMILES: Cn1cc(-c2ccncc2)c(-c2ccc(OCc3cc(O[11CH3])c4ccccc4n3)cc2)n1 [[^11C]2, 4-(methoxy-^11C)-2-((4-(1-methyl-4-(pyridin-4-yl)-1H-pyrazol-3-yl)phenoxy)methyl)quinoline]
- Distribution, blood, MP-10 block (PDE10A [1]; 30 min p.i.): 0.343 ± 0.007 %ID/gram
- Distribution, cerebellum, MP-10 block (PDE10A [1]; 30 min p.i.): 0.112 ± 0.011 %ID/gram
- Distribution, fat, MP-10 block (PDE10A [1]; 30 min p.i.): 0.697 ± 0.219 %ID/gram
- Distribution, heart, MP-10 block (PDE10A [1]; 30 min p.i.): 0.310 ± 0.040 %ID/gram
- Distribution, kidney, MP-10 block (PDE10A [1]; 30 min p.i.): 1.072 ± 0.069 %ID/gram
- Distribution, liver, MP-10 block (PDE10A [1]; 30 min p.i.): 4.723 ± 0.489 %ID/gram
- Distribution, lung, MP-10 block (PDE10A [1]; 30 min p.i.): 0.362 ± 0.021 %ID/gram
- Distribution, muscle, MP-10 block (PDE10A [1]; 30 min p.i.): 0.224 ± 0.012 %ID/gram
- Distribution, striatum, MP-10 block (PDE10A [1]; 30 min p.i.): 0.175 ± 0.022 %ID/gram
- Distribution, total brain, MP-10 block (PDE10A [1]; 30 min p.i.): 0.114 ± 0.007 %ID/gram
- striatal binding after blocking dose of MP-10 (PDE10A [1]; rats): significant reduction
- blood–brain-barrier penetration (PDE10A [2]): readily penetrate the blood–brain-barrier
- striatum: cerebellum ratio ([3]; SD rats, 60 min p.i.): 2.5 fold
- Biodistribution, blood ([3]; 5 min p.i.): 0.268 ± 0.053 %ID/gram
- Biodistribution, cerebellum ([3]; 5 min p.i.): 0.215 ± 0.031 %ID/gram
- Biodistribution, fat ([3]; 5 min p.i.): 0.242 ± 0.065 %ID/gram
- Biodistribution, heart ([3]; 5 min p.i.): 0.464 ± 0.023 %ID/gram
- Biodistribution, kidney ([3]; 5 min p.i.): 2.340 ± 0.295 %ID/gram
- Biodistribution, liver ([3]; 5 min p.i.): 7.080 ± 0.435 %ID/gram
- Biodistribution, lung ([3]; 5 min p.i.): 0.890 ± 0.206 %ID/gram
- Biodistribution, muscle ([3]; 5 min p.i.): 0.258 ± 0.035 %ID/gram
- Biodistribution, striatum ([3]; 5 min p.i.): 0.352 ± 0.052 ^a %ID/gram
- Biodistribution, total brain ([3]; 5 min p.i.): 0.210 ± 0.035 %ID/gram
- Biodistribution, blood ([3]; 30 min p.i. (control)): 0.192 ± 0.075 %ID/gram
- Biodistribution, cerebellum ([3]; 30 min p.i. (control)): 0.066 ± 0.023 %ID/gram
- Biodistribution, fat ([3]; 30 min p.i. (control)): 0.371 ± 0.091 %ID/gram
- Biodistribution, heart ([3]; 30 min p.i. (control)): 0.187 ± 0.042 %ID/gram
- Biodistribution, kidney ([3]; 30 min p.i. (control)): 1.294 ± 0.268 %ID/gram
- Biodistribution, liver ([3]; 30 min p.i. (control)): 10.085 ± 1.972 %ID/gram
- Biodistribution, lung ([3]; 30 min p.i. (control)): 0.233 ± 0.045 %ID/gram
- Biodistribution, muscle ([3]; 30 min p.i. (control)): 0.133 ± 0.035 %ID/gram
- Biodistribution, striatum ([3]; 30 min p.i. (control)): 0.230 ± 0.030 ^a %ID/gram and 0.230 ± 0.030 %ID/gram
- Biodistribution, total brain ([3]; 30 min p.i. (control)): 0.087 ± 0.016 %ID/gram
- Biodistribution, blood ([3]; 60 min p.i.): 0.152 ± 0.030 %ID/gram
- Biodistribution, cerebellum ([3]; 60 min p.i.): 0.046 ± 0.014 %ID/gram
- Biodistribution, fat ([3]; 60 min p.i.): 0.278 ± 0.040 %ID/gram
- Biodistribution, heart ([3]; 60 min p.i.): 0.121 ± 0.025 %ID/gram
- Biodistribution, kidney ([3]; 60 min p.i.): 0.758 ± 0.112 %ID/gram
- Biodistribution, lung ([3]; 60 min p.i.): 0.163 ± 0.027 %ID/gram
- Biodistribution, muscle ([3]; 60 min p.i.): 0.084 ± 0.013 %ID/gram
- Biodistribution, striatum ([3]; 60 min p.i.): 0.201 ± 0.037 ^a %ID/gram
- Biodistribution, total brain ([3]; 60 min p.i.): 0.057 ± 0.008 %ID/gram

SMILES: Cn1cc(-c2ccncc2)c(-c2ccc(OCc3nc4ccccc4cc3O[11CH3])cc2)n1 [[^11C]1, 3-(methoxy-^11C)-2-((4-(1-methyl-4-(pyridin-4-yl)-1H-pyrazol-3-yl)phenoxy)methyl)quinoline]
- Distribution, blood, MP-10 block (PDE10A [1]; 30 min p.i.): 0.407 ± 0.026 %ID/gram
- Distribution, cerebellum, MP-10 block (PDE10A [1]; 30 min p.i.): 0.119 ± 0.006 %ID/gram
- Distribution, fat, MP-10 block (PDE10A [1]; 30 min p.i.): 1.353 ± 0.202 %ID/gram
- Distribution, heart, MP-10 block (PDE10A [1]; 30 min p.i.): 0.340 ± 0.036 %ID/gram
- Distribution, kidney, MP-10 block (PDE10A [1]; 30 min p.i.): 1.523 ± 0.162 %ID/gram
- Distribution, liver, MP-10 block (PDE10A [1]; 30 min p.i.): 5.781 ± 0.696 %ID/gram
- Distribution, lung, MP-10 block (PDE10A [1]; 30 min p.i.): 0.404 ± 0.024 %ID/gram
- Distribution, muscle, MP-10 block (PDE10A [1]; 30 min p.i.): 0.257 ± 0.026 %ID/gram
- Distribution, striatum, MP-10 block (PDE10A [1]; 30 min p.i.): 0.294 ± 0.013 %ID/gram
- Distribution, total brain, MP-10 block (PDE10A [1]; 30 min p.i.): 0.128 ± 0.003 %ID/gram
- decrease of striatum: cerebellum ratio by MP-10 pretreatment (PDE10A [1]; rats, MP-10 2 mg/kg 5 min prior to tracer, 30 min p.i.): 50%
- striatal binding after blocking dose of MP-10 (PDE10A [1]; rats): significant reduction
- blood–brain-barrier penetration (PDE10A [2]): readily penetrate the blood–brain-barrier
- Biodistribution, blood ([3]; 5 min p.i.): 0.679 ± 0.116 %ID/gram
- Biodistribution, cerebellum ([3]; 5 min p.i.): 0.229 ± 0.039 %ID/gram
- Biodistribution, fat ([3]; 5 min p.i.): 0.935 ± 0.462 %ID/gram
- Biodistribution, heart ([3]; 5 min p.i.): 0.733 ± 0.039 %ID/gram
- Biodistribution, kidney ([3]; 5 min p.i.): 4.354 ± 0.473 %ID/gram
- Biodistribution, liver ([3]; 5 min p.i.): 11.005 ± 0.758 %ID/gram
- Biodistribution, lung ([3]; 5 min p.i.): 1.602 ± 0.509 %ID/gram
- Biodistribution, muscle ([3]; 5 min p.i.): 0.412 ± 0.064 %ID/gram
- Biodistribution, striatum ([3]; 5 min p.i.): 0.488 ± 0.101 ^a %ID/gram
- Biodistribution, total brain ([3]; 5 min p.i.): 0.231 ± 0.038 %ID/gram
- Biodistribution, blood ([3]; 30 min p.i. (control)): 0.321 ± 0.021 %ID/gram
- Biodistribution, cerebellum ([3]; 30 min p.i. (control)): 0.097 ± 0.016 %ID/gram
- Biodistribution, fat ([3]; 30 min p.i. (control)): 0.851 ± 0.314 %ID/gram
- Biodistribution, heart ([3]; 30 min p.i. (control)): 0.296 ± 0.038 %ID/gram
- Biodistribution, kidney ([3]; 30 min p.i. (control)): 1.647 ± 0.459 %ID/gram
- Biodistribution, liver ([3]; 30 min p.i. (control)): 7.345 ± 1.472 %ID/gram
- Biodistribution, lung ([3]; 30 min p.i. (control)): 0.408 ± 0.083 %ID/gram
- Biodistribution, muscle ([3]; 30 min p.i. (control)): 0.244 ± 0.073 %ID/gram
- Biodistribution, striatum ([3]; 30 min p.i. (control)): 0.452 ± 0.086 ^a %ID/gram and 0.452 ± 0.086 %ID/gram
- Biodistribution, total brain ([3]; 30 min p.i. (control)): 0.133 ± 0.024 %ID/gram
- Biodistribution, blood ([3]; 60 min p.i.): 0.275 ± 0.028 %ID/gram
- Biodistribution, cerebellum ([3]; 60 min p.i.): 0.064 ± 0.006 %ID/gram
- Biodistribution, fat ([3]; 60 min p.i.): 0.500 ± 0.087 %ID/gram
- Biodistribution, heart ([3]; 60 min p.i.): 0.199 ± 0.013 %ID/gram
- Biodistribution, kidney ([3]; 60 min p.i.): 1.275 ± 0.141 %ID/gram
- Biodistribution, liver ([3]; 60 min p.i.): 6.398 ± 0.945 %ID/gram
- Biodistribution, lung ([3]; 60 min p.i.): 0.299 ± 0.042 %ID/gram
- Biodistribution, muscle ([3]; 60 min p.i.): 0.142 ± 0.014 %ID/gram
- Biodistribution, striatum ([3]; 60 min p.i.): 0.380 ± 0.048 ^a %ID/gram
- Biodistribution, total brain ([3]; 60 min p.i.): 0.095 ± 0.008 %ID/gram
